# Reference: patent US3998843A (priority 1972, dated 1976)
# Key:
# [1] = system: constriction of the pupil in the eye of the mouse; experiment: Mouse miosis test of Schneider; type: in vivo; conditions: for Potency, Mouse Miosis: SC, relative to neostigmine (1.0); for in vivo potency versus neostigmine: mouse miosis, in words
# Method: (§1) In vivo testing was carried out employing the mouse miosis test of Schneider R, J. Pharm. Pharmacol. 22, 298 (1970) in which antiacetylcholinesterases induce constriction of the pupil in the eye of the mouse, and the rat chromodacryorrhoea test of Burgen A.S.V.Brit.J.Pharmacol. 4; 185 (1949) in which antiacetylcholinesterases potentiate the ability of acetylcholine to provoke red tears in rats. Both tests enable the potency and duration of action of antiacetylcholinesterases to be assessed.
# [2] = system: ability of acetylcholine to provoke red tears in rats; experiment: Rat chromodacryorrhoea test of Burgen; type: in vivo; conditions: for Potency, Rat chromod.: IP, relative to neostigmine (1.0); for in vivo potency versus neostigmine: rat chromodacryorrhoea, in words
# Method: as §1
# acetylcholinesterase [3] = molecular target: T1, acetylcholinesterase (Homo sapiens, UniProt P22303); experiment: In vitro anticholinesterase activity, Michel method (acetylcholine substrate, washed human red cells as enzyme source); type: biochemical
# T1 construct: washed human red cells as the source of acetylcholinesterase; from tissue; host or cells: washed human red cells
# T1 sequence (P22303 other isoform, or with tags, fused parts or gaps): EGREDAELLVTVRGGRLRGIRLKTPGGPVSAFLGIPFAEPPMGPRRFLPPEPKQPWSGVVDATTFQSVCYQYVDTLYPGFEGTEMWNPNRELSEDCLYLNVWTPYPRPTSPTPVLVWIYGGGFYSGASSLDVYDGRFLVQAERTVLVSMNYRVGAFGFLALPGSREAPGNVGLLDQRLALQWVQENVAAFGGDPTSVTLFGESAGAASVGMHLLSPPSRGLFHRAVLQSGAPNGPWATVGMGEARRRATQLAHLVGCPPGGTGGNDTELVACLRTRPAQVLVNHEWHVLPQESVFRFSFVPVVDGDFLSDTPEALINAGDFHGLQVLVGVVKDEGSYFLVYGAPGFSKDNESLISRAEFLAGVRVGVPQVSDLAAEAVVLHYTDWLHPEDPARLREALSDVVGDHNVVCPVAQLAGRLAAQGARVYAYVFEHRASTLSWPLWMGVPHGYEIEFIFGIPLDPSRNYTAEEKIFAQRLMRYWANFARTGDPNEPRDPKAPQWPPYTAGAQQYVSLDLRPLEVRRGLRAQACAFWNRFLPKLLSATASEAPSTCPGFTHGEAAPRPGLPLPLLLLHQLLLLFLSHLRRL
# Method: Screening for anticholinesterase activity was carried out in vitro by the Michel method (J. Lab. Clin. Med 34, 1564, (1949)) using acetylcholine as substrate, washed human red cells as the source of acetylcholinesterase.
# [4] = system: neuromuscular effects of tubocurarine; experiment: Reversal of tubocurarine neuromuscular effects in man (human volunteers; anterior compartment leg muscle twitch); type: in vivo; conditions: for recovery from tubocurarine block: I.V. in saline, 0.6 to 0.8 mg methobromide or 2.5 mg neostigmine (after 1.2 mg atropine)
# Method: Substantiation for some of these estimates has come from the results of tests carried out in human volunteers. In these experiments contractions of the anterior compartment leg muscles were induced by supramaximal stimulation of the lateral popliteal nerve. After recording a period of control activity, tubocurarine was administered as a slow I.V. infusion until the muscle twitch height was reduced to approximately 50% of control levels. Three minutes later the anticholinesterase was administered (I.V. in saline) and the twitch height monitored until control levels were re-attained.
# acetylcholinesterase [5] = conditions: after dosage; as thought by some workers; cited from earlier work
# [6] = molecular target: T2, bovine erythrocyte acetylcholinesterase (Bos taurus, UniProt P23795); experiment: In vitro anticholinesterase test, method of Ellmann (acetylthiocholine substrate, Lineweaver-Burk, Ki); type: biochemical; conditions: for Ki: acetylthiocholine substrate, bovine erythrocyte acetylcholinesterase, competitive conditions; for antiacetylcholinesterase potency versus neostigmine: from Ki, in words
# T2 construct: bovine erythrocyte acetylcholinesterase as enzyme; from tissue; host or cells: bovine erythrocytes
# T2 sequence (P23795 other isoform, or with tags, fused parts or gaps): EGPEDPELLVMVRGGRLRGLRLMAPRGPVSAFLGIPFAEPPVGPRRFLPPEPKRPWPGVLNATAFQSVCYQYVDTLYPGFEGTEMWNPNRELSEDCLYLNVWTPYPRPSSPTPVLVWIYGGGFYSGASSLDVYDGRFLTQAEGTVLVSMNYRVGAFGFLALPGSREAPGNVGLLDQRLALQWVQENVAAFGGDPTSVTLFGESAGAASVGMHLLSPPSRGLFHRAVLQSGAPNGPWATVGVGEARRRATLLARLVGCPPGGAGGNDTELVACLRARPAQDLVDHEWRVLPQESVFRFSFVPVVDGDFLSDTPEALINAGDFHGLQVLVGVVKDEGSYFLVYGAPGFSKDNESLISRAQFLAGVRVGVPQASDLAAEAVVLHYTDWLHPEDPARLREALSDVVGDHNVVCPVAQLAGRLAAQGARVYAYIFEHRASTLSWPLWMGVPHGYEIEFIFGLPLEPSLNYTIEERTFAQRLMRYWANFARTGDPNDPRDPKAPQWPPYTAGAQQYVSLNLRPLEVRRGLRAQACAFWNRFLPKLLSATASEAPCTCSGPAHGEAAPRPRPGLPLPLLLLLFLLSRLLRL
# Method: In vitro testing of compounds was carried out by the method of Ellmann, Biochem. Pharmacol. 7, 88 (1961) with acetylthiocholine as substrate and bovine erythrocyte acetylcholinesterase as enzyme. Reaction rates were determined with and without inhibitor under competitive conditions (i.e. the substrate was added before the inhibitor). Results were plotted by the Lineweaver-Burk method and these plots were used to determine inhibitor constants (Ki values).
# muscarinic activity = experiment: Muscarinic activity in animal experimentation; type: in vivo
# [7] = system: tubocurarine-induced muscle blockade; experiment: Reversal of tubocurarine-induced muscle blockade in rats (anterior tibialis twitch); type: in vivo; conditions: iv; Rat; injected into the femoral vein; read-out: Dose necessary to produce maximum anti-curare effect
# Text: (§2) D-Tubocurarine is used clinically to produce relaxation of skeletal muscles in patients undergoing certain surgical procedures. Following the completion of surgery antiacetylcholinesterases are used to reverse this relaxation. Experiments have been carried out to measure the ability of the compounds of the invention to reverse tubocurarine-induced muscle blockade in rats and cats.
# (§3) The method was based on that of Zaimis E, J. Physiol 122, 238 (1953) in which animals were anaesthetised and the left hind limb clamped ridigly in a horizontal position with the tendon of the anterior tibialis muscle attached to a flat spring myograph. Twitches of the anterior tibialis muscle were induced by supramaximal electrical stimulation of the tibial nerve and recorded on a strip recorder. Drugs dissolved in 0.9% saline were injected into the femoral vein. During an experiment the dose of tubocurarine necessary to establish a partial (80 to 90%) blockade of neuromuscular transmission was established an anticholinisterase drugs were subsequently injected at the time of maximum blockade. Recovery achieved after the administration of an antiacetylcholinesterase was compared with the recovery after tubocurarine alone.
# [8] = system: tubocurarine-induced muscle blockade; experiment: Reversal of tubocurarine-induced muscle blockade in cats (anterior tibialis twitch); type: in vivo; conditions: Felis catus, iv; Cat; injected into the femoral vein; read-out: Dose necessary to produce maximum anti-curare effect
# Text: as §2, §3
# [9] = Intravenous LD50 in rats and therapeutic ratio; type: in vivo, rat; conditions: for margin of safety when used in man: expected from the rat therapeutic ratios; for selectivity ratio / LD50: rat, in vivo, rats; for selectivity ratio: iv, ratio of LD50 to the dose giving maximum tubocurarine reversal; for LD50: intravenous
# Text: The intravenous LD50 has been determined in rats for the three above mentioned drugs and from the results obtained the therapeutic ratios (defined as the ratio of LD50 to the dose giving maximum tubocurarine reversal) have been calculated: […]
# [10] = system: neuromuscular effects of tubocurarine; conditions: in the clinic; cited from earlier work
structure (smiles),measurement,setting,value
"CC[N+](CC)(CCNC(=O)C(=O)NCC[N+](CC)(CC)Cc1ccccc1Cl)Cc1ccccc1Cl [Ambenonium, reference compound]","Potency, Mouse Miosis",[1],0.06
same,"Potency, Rat chromod.",[2],0.03
"C[N+]1([C@@H]2CCCC[C@@H]2c2cccc(O)c2)CCCC1 (stereo in doubt) [Example 2, cis-2-(3-Hydroxyphenyl)-1-pyrrolidinocyclohexane Methobromide]",IC50,acetylcholinesterase [3],0.02 µM
same,incidence of muscarinic effects,[4]; 0.6 to 0.8 mg I.V. versus 2.5 mg neostigmine with 1.2 mg atropine,less than that produced by the neostigmine/atropine combination
same,recovery from tubocurarine block,[4],Prompt recovery
C[N+]1([C@@H]2CCCC[C@@H]2c2cc(O)ccc2O)CCCC1 (relative stereo) [Example 16],IC50,acetylcholinesterase [3],0.01 µM
"CCCC(=O)Oc1cccc([C@@H]2CCCC[C@@H]2[N+]2(C)CCCC2)c1 (relative stereo) [Example 5, cis-2-(3-Butyryloxyphenyl)-1-pyrrolidinocyclohexane methiodide]",IC50,acetylcholinesterase [3],0.02 µM
"C[N+]1([C@@H]2CCCC[C@H]2c2cccc(O)c2)CCCC1 (relative stereo) [trans-2-(3-hydroxyphenyl)-1-pyrrolidinocyclohexane methiodide, reference compound]",IC50,acetylcholinesterase [3],100 µM
same,activity of cis compound relative to trans compound (fold as active),acetylcholinesterase [3]; Example 11 versus corresponding trans compound,~5000 ×
C[N+]1([C@@H]2CCC[C@@H]2c2cccc(O)c2)CCCC1 (relative stereo) [Example 14],IC50,acetylcholinesterase [3],0.1 µM
"CN(C)C(=O)Oc1ccc[n+](C)c1 [Pyridostigmine, reference compound]",reversal of enzyme inhibition,acetylcholinesterase [5],relatively slow reversal
same,Ki,[6],4.8 µM
Cc1cccc([C@H]2CCCC[C@H]2[N+]2(C)CCCC2)c1 (relative stereo) [Example 8],IC50,acetylcholinesterase [3],6 µM
"Nc1c2c(nc3ccccc13)CCCC2 [Tacrine, reference compound]","Potency, Mouse Miosis",[1],0.21
same,"Potency, Rat chromod.",[2],0.38
"C[N+]1([C@H]2CCCC[C@H]2c2cccc(O)c2)CCCC1 (stereo in doubt) [Example 11, cis-2-(3-hydroxyphenyl)-1-pyrrolidinocyclohexane methiodide]",IC50,acetylcholinesterase [3],0.02 µM
same,muscarinic activity,muscarinic activity,less muscarinic activity
same,"Potency, Mouse Miosis",[1],9.6
same,in vivo potency versus neostigmine,[1],more potent than neostigmine
same,ED (maximum effect),[7],0.025 mg/kg
same,"Potency, Rat chromod.",[2],6.0
same,in vivo potency versus neostigmine,[2],more potent than neostigmine
same,ED (maximum effect),[8],0.03 mg/kg
same,Ki,[6],0.0073 µM
same,antiacetylcholinesterase potency versus neostigmine,[6],more potent than neostigmine
same,margin of safety when used in man,[9],wide margin of safety
same,selectivity ratio,[9],15
same,LD50,[9],0.18 mg/kg
C[N+]1([C@@H]2CCCC[C@@H]2c2ccc(Cl)cc2)CCCC1 (relative stereo) [Example 10],IC50,acetylcholinesterase [3],0.2 µM
"CC[N+](C)(C)c1cccc(O)c1 [Edrophonium, reference compound]","Potency, Mouse Miosis",[1],0.04
same,"Potency, Rat chromod.",[2],0.09
"C[N+]1([C@@H]2CCCC[C@@H]2c2ccccc2)CCCC1 (relative stereo) [Example 1, cis-2-Phenyl-1-pyrrolidinocyclohexane Methiodide]",IC50,acetylcholinesterase [3],0.2 µM
same,muscarinic activity,muscarinic activity,less muscarinic activity
same,"Potency, Mouse Miosis",[1],1.6
same,in vivo potency versus neostigmine,[1],more potent than neostigmine
same,ED (maximum effect),[7],0.1 mg/kg
same,"Potency, Rat chromod.",[2],2.0
same,in vivo potency versus neostigmine,[2],more potent than neostigmine
same,ED (maximum effect),[8],0.1 mg/kg
same,Ki,[6],0.0077 µM
same,antiacetylcholinesterase potency versus neostigmine,[6],more potent than neostigmine
same,margin of safety when used in man,[9],wide margin of safety
same,selectivity ratio,[9],7.2
same,LD50,[9],1.5 mg/kg
Cc1ccc([C@H]2CCCC[C@H]2[N+]2(C)CCCC2)cc1 (relative stereo) [Example 7],IC50,acetylcholinesterase [3],1 µM
"CN(C)C(=O)Oc1cccc([N+](C)(C)C)c1 [Neostigmine, reference compound]",clinical intravenous dose to reverse the neuromuscular effects of tubocurarine,[10],2.5 to 3.0 mg
same,reversal of enzyme inhibition,acetylcholinesterase [5],relatively slow reversal
same,ED (maximum effect),[7],0.1 mg/kg
same,recovery from tubocurarine block,[4],Prompt recovery
same,ED (maximum effect),[8],0.1 mg/kg
same,Ki,[6],0.03 µM
same,LD50,[9],0.2 mg/kg
